Patent US20230108906A1, “SUBSTITUTED BICYCLIC AND TRICYCLIC UREAS AND AMIDES, ANALOGUES THEREOF, AND METHODS USING SAME” (Arbutus Biopharma Corporation, priority 2019, published 2023)

What follows are molecules tested on HBV rcDNA in HepDE19 cells (assay: HepDE19 assay with bDNA quantitation of HBV rcDNA). Conditions: Hepatitis B virus, HepDE19, 168 h, inhibition of rcDNA formation in HepDE19 cells (HepG2 derived), Tet-free medium, 7 day incubation, Quantigene 2.0 bDNA readout, top concentration 25 μM; read-out: DE-19bDNA EC50.
Assay type: cell-based, hepatitis B virus (HBV)
In short: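 HepDE19 cells (HepG2-derived, Tet-regulated HBV) switched to Tet-free medium, then treated 7 days at 37 °C with compound, 8-point titration from 25 μM, 0.5% DMSO. rcDNA quantified by bDNA with HBV probes; EC50/EC90 via 4-parameter fit. Viability (CC50) by CellTiter-Glo ATP on 5,000 cells/well after 4 days.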
`CCN(C(=O)Nc1ccc(F)c(C#N)c1)[C@@H]1COCc2[nH]c(=O)c3cc(F)c(F)cc3c21` (single isomer, unassigned) [Compound 138] gave an EC50 of 0.01 µM. In the case of `CC(=O)N1Cc2[nH]c(=O)c3cc(F)ccc3c2C(N(C)C(=O)Nc2ccc(F)c(Cl)c2)C1` (single isomer, unassigned) [Compound 157, 1-(3-Acetyl-8-fluoro-6-oxo-1,2,3,4,5,6-hexahydrobenzo[c][1,7]naphthyridin-1-yl)-3-(3-chloro-4-fluorophenyl)-1-methylurea], the EC50 is reported as 1.2 µM.

Same assay, conditions: Hepatitis B virus, HepDE19, 168 h, read-out: DE-19bDNA EC50 (uM), inhibition of rcDNA formation in HepDE19 cells (HepG2 derived), Tet-free medium, 7 day incubation, Quantigene 2.0 bDNA readout, top concentration 25 μM
In the case of `[2H]C([2H])([2H])N(C(=O)Nc1ccc(F)c(Cl)c1)[C@]1([2H])COCc2[nH]c(=O)c3cc(F)c(F)cc3c21` (single isomer, unassigned) [Compound 146], the EC50 is reported as 0.01 µM.

Same assay, conditions: inhibition of rcDNA formation in HepDE19 cells (HepG2 derived), Tet-free medium, 7 day incubation, Quantigene 2.0 bDNA readout, top concentration 25 μM; read-out: DE-19bDNA EC50
`NS(=O)(=O)CCN(C(=O)Nc1ccc(F)c(Cl)c1)C1COCc2[nH]c(=O)c3cc(F)c(F)cc3c21` (single isomer, unassigned) [Compound 136, 2-(3-(3-Chloro-4-fluorophenyl)-1-(8,9-difluoro-6-oxo-1,4,5,6-tetrahydro-2H-pyrano[3,4-c]isoquinolin-1-yl)ureido)ethane-1-sulfonamide] gave an EC50 of 2.9 µM. With `NS(=O)(=O)CCN(C(=O)Nc1ccc(F)c(Cl)c1)C1COCc2[nH]c(=O)c3cc(F)c(F)cc3c21` (single isomer, unassigned) [Compound 137, 2-(3-(3-Chloro-4-fluorophenyl)-1-(8,9-difluoro-6-oxo-1,4,5,6-tetrahydro-2H-pyrano[3,4-c]isoquinolin-1-yl)ureido)ethane-1-sulfonamide] the EC50 was 0.01 µM. `CS(=O)(=O)CCN(C(=O)Nc1ccc(F)c(Cl)c1)C1COCc2[nH]c(=O)c3cc(F)c(F)cc3c21` (single isomer, unassigned) [Compound 139, 3-(3-Chloro-4-fluorophenyl)-1-(8,9-difluoro-6-oxo-1,4,5,6-tetrahydro-2H-pyrano[3,4-c]isoquinolin-1-yl)-1-(2-(methylsulfonyl)ethyl)urea] was tested, and the EC50 was 0.6 µM. Work on `CS(=O)(=O)CCN(C(=O)Nc1ccc(F)c(Cl)c1)C1COCc2[nH]c(=O)c3cc(F)c(F)cc3c21` (single isomer, unassigned) [Compound 140, 3-(3-Chloro-4-fluorophenyl)-1-(8,9-difluoro-6-oxo-1,4,5,6-tetrahydro-2H-pyrano[3,4-c]isoquinolin-1-yl)-1-(2-(methylsulfonyl)ethyl)urea] yielded an EC50 of 0.01 µM. Work on `CN(C(=O)Nc1ccc(F)c(Cl)c1)C1CNCc2[nH]c(=O)c3cc(F)c(F)cc3c21` (single isomer, unassigned) [Compound 149, 3-(3-Chloro-4-fluorophenyl)-1-(8,9-difluoro-6-oxo-1,2,3,4,5,6-hexahydrobenzo[c][1,7]naphthyridin-1-yl)-1-methylurea] yielded an EC50 of 0.25 µM. `CN(C(=O)Nc1ccc(F)c(Cl)c1)C1CNCc2[nH]c(=O)c3cc(F)c(F)cc3c21` (single isomer, unassigned) [Compound 150, 3-(3-Chloro-4-fluorophenyl)-1-(8,9-difluoro-6-oxo-1,2,3,4,5,6-hexahydrobenzo[c][1,7]naphthyridin-1-yl)-1-methylurea] showed an EC50 of 0.01 µM. Molecule `CN(C(=O)Nc1ccc(F)c(Cl)c1)C1CNCc2[nH]c(=O)c3cc(F)ccc3c21` (single isomer, unassigned) [Compound 153, 3-(3-Chloro-4-fluorophenyl)-1-(8-fluoro-6-oxo-1,2,3,4,5,6-hexahydrobenzo[c][1,7]naphthyridin-1-yl)-1-methylurea] has an EC50 of 0.73 µM. In the case of `CN(C(=O)Nc1ccc(F)c(Cl)c1)C1CNCc2[nH]c(=O)c3cc(F)ccc3c21` (single isomer, unassigned) [Compound 154, 3-(3-Chloro-4-fluorophenyl)-1-(8-fluoro-6-oxo-1,2,3,4,5,6-hexahydrobenzo[c][1,7]naphthyridin-1-yl)-1-methylurea], the EC50 is reported as 0.03 µM. `CN1Cc2[nH]c(=O)c3cc(F)ccc3c2C(N(C)C(=O)Nc2ccc(F)c(Cl)c2)C1` (single isomer, unassigned) [Compound 155, 3-(3-Chloro-4-fluorophenyl)-1-(8-fluoro-3-methyl-6-oxo-1,2,3,4,5,6-hexahydrobenzo[c][1,7]naphthyridin-1-yl)-1-methylurea] gave an EC50 of 9.2 µM. In the case of `CN1Cc2[nH]c(=O)c3cc(F)ccc3c2C(N(C)C(=O)Nc2ccc(F)c(Cl)c2)C1` (single isomer, unassigned) [Compound 156, 3-(3-Chloro-4-fluorophenyl)-1-(8-fluoro-3-methyl-6-oxo-1,2,3,4,5,6-hexahydrobenzo[c][1,7]naphthyridin-1-yl)-1-methylurea], the EC50 is reported as 0.42 µM. `CC(=O)N1Cc2[nH]c(=O)c3cc(F)ccc3c2C(N(C)C(=O)Nc2ccc(F)c(Cl)c2)C1` (single isomer, unassigned) [Compound 158, 1-(3-Acetyl-8-fluoro-6-oxo-1,2,3,4,5,6-hexahydrobenzo[c][1,7]naphthyridin-1-yl)-3-(3-chloro-4-fluorophenyl)-1-methylurea] showed an EC50 of 2.3 µM. Work on `CC(=O)N1Cc2[nH]c(=O)c3cc(F)c(F)cc3c2C(N(C)C(=O)Nc2ccc(F)c(Cl)c2)C1` (single isomer, unassigned) [Compound 159, 1-(3-Acetyl-8,9-difluoro-6-oxo-1,2,3,4,5,6-hexahydrobenzo[c][1,7]naphthyridin-1-yl)-3-(3-chloro-4-fluorophenyl)-1-methylurea] yielded an EC50 of 12 µM. Molecule `CC(=O)N1Cc2[nH]c(=O)c3cc(F)c(F)cc3c2C(N(C)C(=O)Nc2ccc(F)c(Cl)c2)C1` (single isomer, unassigned) [Compound 160, 1-(3-Acetyl-8,9-difluoro-6-oxo-1,2,3,4,5,6-hexahydrobenzo[c][1,7]naphthyridin-1-yl)-3-(3-chloro-4-fluorophenyl)-1-methylurea] has an EC50 of 0.82 µM. Molecule `CN(C(=O)Nc1ccc(F)c(C#N)c1)C1CNCc2[nH]c(=O)c3cc(F)ccc3c21` (single isomer, unassigned) [Compound 161, 3-(3-Cyano-4-fluorophenyl)-1-(8-fluoro-6-oxo-1,2,3,4,5,6-hexahydrobenzo[c][1,7]naphthyridin-1-yl)-1-methylurea] has an EC50 of 17 µM. For `CN(C(=O)Nc1ccc(F)c(C#N)c1)C1CNCc2[nH]c(=O)c3cc(F)ccc3c21` (single isomer, unassigned) [Compound 162, 3-(3-Cyano-4-fluorophenyl)-1-(8-fluoro-6-oxo-1,2,3,4,5,6-hexahydrobenzo[c][1,7]naphthyridin-1-yl)-1-methylurea], the EC50 was 0.17 µM. Molecule `CN1Cc2[nH]c(=O)c3cc(F)ccc3c2C(N(C)C(=O)Nc2ccc(F)c(C#N)c2)C1` (single isomer, unassigned) [Compound 163, 3-(3-Cyano-4-fluorophenyl)-1-(8-fluoro-3-methyl-6-oxo-1,2,3,4,5,6-hexahydrobenzo[c][1,7]naphthyridin-1-yl)-1-methylurea] has an EC50 of 23 µM. `CN1Cc2[nH]c(=O)c3cc(F)ccc3c2C(N(C)C(=O)Nc2ccc(F)c(C#N)c2)C1` (single isomer, unassigned) [Compound 164, 3-(3-Cyano-4-fluorophenyl)-1-(8-fluoro-3-methyl-6-oxo-1,2,3,4,5,6-hexahydrobenzo[c][1,7]naphthyridin-1-yl)-1-methylurea] was tested, and the EC50 was 1.3 µM. `CC(=O)N1Cc2[nH]c(=O)c3cc(F)ccc3c2C(N(C)C(=O)Nc2ccc(F)c(C#N)c2)C1` (single isomer, unassigned) [Compound 165, 1-(3-Acetyl-8-fluoro-6-oxo-1,2,3,4,5,6-hexahydrobenzo[c][1,7]naphthyridin-1-yl)-3-(3-cyano-4-fluorophenyl)-1-methylurea] was tested, and the EC50 was at least 25 µM.
